In publication PMC8966731 (2022):
Bridge positions count the residues as written; N and C are the ends. Square brackets hold non-standard residues; d marks the D form.

Test system: SARS-CoV-2 M^pro
Conditions: 37 °C, up to 1 h

AcyLQYAVLRHKRREC ({CH2CO}-[dY]LQYAVLRHKRREC-NH2; thioether N-14; SMILES CC(C)C[C@@H]1NC(=O)[C@H](C(C)C)NC(=O)[C@H](C)NC(=O)[C@H](Cc2ccc(O)cc2)NC(=O)[C@H](CCC(N)=O)NC(=O)[C@H](CC(C)C)NC(=O)[C@@H](Cc2ccc(O)cc2)NC(=O)CSC[C@@H](C(N)=O)NC(=O)[C@H](CCC(=O)O)NC(=O)[C@H](CCCNC(=N)N)NC(=O)[C@H](CCCNC(=N)N)NC(=O)[C@H](CCCCN)NC(=O)[C@H](Cc2c[nH]cn2)NC(=O)[C@H](CCCNC(=N)N)NC1=O)
cleaved bond: Gln3-Tyr4, minor, 1 h
